In PubChem BioAssay (NCI):
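Interpolation was linear, between the two tested concentrations surrounding the appropriate level; five concentrations were tested over 48 hours in 96-well plates. GI50 marks 50% less growth. The concentration for full growth arrest is given as TGI.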

How the values were obtained:
Assay in all cases: NCI anticancer screen, dose series, 48 h
HCC-2998 colon = test system: HCC-2998 colon
K-562 leukemia = test system: K-562 leukemia
M14 melanoma = test system: M14 melanoma
NCI-H226 lung = test system: NCI-H226 lung
NCI-H23 lung = test system: NCI-H23 lung
SNB-75 CNS = test system: SNB-75 CNS
CAKI-1 renal = test system: CAKI-1 renal
MALME-3M melanoma = test system: MALME-3M melanoma
SK-MEL-2 melanoma = test system: SK-MEL-2 melanoma
SR leukemia = test system: SR leukemia

Row | Compound | TGI (HCC-2998 colon) | TGI (K-562 leukemia) | TGI (M14 melanoma) | TGI (NCI-H226 lung) | TGI (NCI-H23 lung) | TGI (SNB-75 CNS) | TGI (CAKI-1 renal) | TGI (MALME-3M melanoma) | TGI (SK-MEL-2 melanoma) | GI50 (CAKI-1 renal) | GI50 (HCC-2998 colon) | GI50 (K-562 leukemia) | GI50 (M14 melanoma) | GI50 (MALME-3M melanoma) | GI50 (NCI-H226 lung) | GI50 (NCI-H23 lung) | GI50 (SK-MEL-2 melanoma) | GI50 (SNB-75 CNS) | TGI (SR leukemia) | GI50 (SR leukemia)
1 | COc1cc2c(cc1OC)-c1c3cc(O)ccc3nn[n+]1CC2 | > 100 µM | > 100 µM | > 100 µM | > 100 µM | > 100 µM | > 100 µM |  |  |  |  |  |  |  |  |  |  |  |  |  | 
2 | Cc1cc(C)nc(NS(=O)(=O)c2ccc(NC(=O)c3ccc(Cl)c4c(Nc5ccc(S(=O)(=O)Nc6nc(C)cc(C)n6)cc5)c5ccccc5nc34)cc2)n1 |  | 99 µM | 6.95 µM |  | 39.7 µM | > 100 µM | > 100 µM | 53.5 µM | > 100 µM |  |  |  |  |  |  |  |  |  |  | 
3 | Cn1c2ccccc2c2c(Nc3ccccc3)c3ccccc3nc21 | > 100 µM | > 100 µM | 33.3 µM | 46.4 µM | 67.4 µM | > 100 µM | 38.7 µM | 33.9 µM | > 100 µM | 16.7 µM | 40.9 µM | 5.11 µM | 15.9 µM | 15.4 µM | 16.4 µM | 31.4 µM | 80 µM | 26.5 µM |  | 
4 | CCCCC(=O)OCC(=O)[C@]1(O)Cc2c(O)c3c(c(O)c2[C@@H](OC2CC(NC(=O)C(F)(F)F)C(O)C(C)O2)C1)C(=O)c1c(OC)cccc1C3=O (stereo partly specified) | 3.81 µM | > 21.9 µM | 8.62 µM | 0.192 µM | 1.98 µM | 4.37 µM | 2.63 µM | 2.76 µM | 6.01 µM |  |  |  |  |  |  |  |  |  |  | 
5 | COC1CCC2C(NS(=O)(=O)c3ccc(C)cc3)CCCC2O1 (stereo unspecified) (tested in a mixture with another compound) | > 34.5 µM | 27.8 µM | > 34.5 µM | > 34.5 µM | > 34.5 µM | > 34.5 µM | > 34.5 µM | > 34.5 µM | > 34.5 µM |  |  |  |  |  |  |  |  |  |  | 
6 | O=C(O)CCc1coc2ccc(O)cc12 | > 100 µM | > 100 µM | > 100 µM |  | > 100 µM | > 100 µM | > 100 µM |  |  |  |  |  |  |  |  |  |  |  |  | 
7 | CCN(CCO)CC1CCCC2CCCCC21 (stereo unspecified) | > 100 µM | > 100 µM | > 100 µM | > 100 µM | > 100 µM | > 100 µM | > 100 µM | > 100 µM | > 100 µM |  |  |  |  |  |  |  |  |  |  | 
8 | CC(=O)NNc1nc(C)c(C(=O)NNC(=O)C(=O)Nc2c(Cl)cc([N+](=O)[O-])cc2Cl)s1 | > 100 µM | > 100 µM | > 100 µM | 82.6 µM | 36.7 µM |  |  | > 100 µM | > 100 µM |  |  |  |  |  |  |  |  |  | > 100 µM | 
9 | Cc1ccc(C(=O)/C(=C/c2ccc([N+](=O)[O-])cc2)SCc2ccc(Cl)cc2)cc1 | 3.37 µM |  | 19.4 µM | > 100 µM | 20.7 µM | > 100 µM | 4.9 µM | 19.2 µM | 63.2 µM | 1.7 µM | 1.67 µM |  | 2.52 µM | 4.34 µM | > 100 µM | 2.73 µM | 15.8 µM | 20.4 µM | > 100 µM | 0.325 µM
10 | O=C(N/C(=C\c1ccc(/C=C(\NC(=O)c2ccccc2)c2nc3cc([N+](=O)[O-])ccc3[nH]2)cc1)c1nc2cc([N+](=O)[O-])ccc2[nH]1)c1ccccc1 | 77.2 µM | > 100 µM | > 100 µM |  | > 100 µM | > 100 µM | > 100 µM | > 100 µM | 83.3 µM |  |  |  |  |  |  |  |  |  |  | 
11 | COc1cc(/C=N/NC(=O)c2ccc(C(F)(F)F)nc2Nc2ccc(Cl)cc2C)ccc1O | 8.45 µM | 7.17 µM | 14.6 µM | 5.01 µM | 16.7 µM | 21.3 µM | 10.8 µM | 10.9 µM | 11.9 µM | 2.23 µM | 1.98 µM | 1.31 µM | 3.76 µM | 2.19 µM | 1.28 µM | 3.63 µM | 2.14 µM | 4.79 µM |  | 
12 | Cc1ccc(NC2=C(Cl)C(=O)N(Cc3ccccc3)C2=O)cc1O |  | > 100 µM | > 100 µM | 60.6 µM | > 100 µM |  | > 100 µM | > 100 µM | 54.8 µM | 28.1 µM |  | 17.8 µM | 51.4 µM | 24.1 µM | 18.1 µM | 34.3 µM | 7.83 µM |  | > 100 µM | 6.91 µM
13 | CC(C)=CC(=O)C1c2cccc(O)c2C(=O)c2c(O)cc(C)cc21 (stereo unspecified) | 5.67 µM | > 100 µM | 10.1 µM | 4.65 µM | 6.55 µM | 4.68 µM | 21.5 µM | 7.93 µM | 3.6 µM |  |  |  |  |  |  |  |  |  |  | 
14 | O=C(O)CSc1ccc([N+](=O)[O-])cc1[N+](=O)[O-] | > 100 µM | > 100 µM | > 100 µM |  | > 100 µM | > 100 µM | > 100 µM | > 100 µM | > 100 µM |  |  |  |  |  |  |  |  |  | > 100 µM | 
15 | COC(CN1C(=O)c2cccc3cccc(c23)C1=O)OC | > 100 µM | > 100 µM | > 100 µM | > 100 µM | > 100 µM | > 100 µM |  | > 100 µM | 86.3 µM |  |  |  |  |  |  |  |  |  | > 100 µM | 
16 | Clc1cc2nsnc2c(Cl)n1 | > 100 µM | 51.9 µM | 29 µM | 42.3 µM | 39.9 µM |  | 24.5 µM | 31.3 µM | 34 µM |  |  |  |  |  |  |  |  |  |  | 
17 | COc1ccc2c3c1C(=O)CCCC3CO2 (stereo unspecified) | > 100 µM | > 100 µM | > 100 µM | > 100 µM | > 100 µM | > 100 µM |  | > 100 µM | > 100 µM |  |  |  |  |  |  |  |  |  |  | 
18 | NNC(=O)Nc1cccnc1 | > 100 µM | > 100 µM | > 100 µM | > 100 µM | > 100 µM | > 100 µM | > 100 µM | > 100 µM | > 100 µM |  |  |  |  |  |  |  |  |  |  | 
19 | CC1(c2ccc(F)cc2)C(C#N)C(=O)NC(=O)C1C#N (stereo unspecified) | > 100 µM | > 100 µM | > 100 µM | > 100 µM | > 100 µM | > 100 µM | > 100 µM | > 100 µM | > 100 µM |  |  |  |  |  |  |  |  |  |  | 
20 | O=C1C=C(Cl)C(=O)C(c2ccc(Cl)cc2)=C1 | 34.2 µM | 23.8 µM | 32.2 µM | 85.5 µM | 67.3 µM | 59.8 µM | 35.1 µM | 39 µM | 44.3 µM |  |  |  |  |  |  |  |  |  |  | 
21 | CN/N=C(/Cc1occc(=O)c1O)C(=O)Nc1ccccc1C | > 100 µM | > 100 µM | > 100 µM | > 100 µM | > 100 µM |  | > 100 µM | > 100 µM | > 100 µM |  |  |  |  |  |  |  |  |  | > 100 µM | 
